According to US20020039787A1, “Method for culturing cells” (priority 2000, published 2002):

How the values were obtained:
[1] = system: human myometrial microvascular endothelial cells (MEC); experiment: Endothelial cell proliferation assay (CellTitre 96 MTS bioassay); type: cell-based; conditions: for effect of cAMP promoter on bFGF-stimulated MEC proliferation: IBMX 330 μM, dibutyryl cAMP 50 μM; for stimulation of MEC proliferation by maximal concentrations of growth factors: P5 MEC, M199 with 20% HS, 6 days (FIG. 5); for growth factor-stimulated MEC proliferation with combinations of HS and FCS in the medium: compared with HS alone (FIG. 3B); for dose dependence of stimulated MEC proliferation: concentration range 0.01-20 ng/ml (FIG. 6); for EC50 of growth factor-induced MEC proliferation: 6 days, absorbance as % of maximal response
Method: The CellTitre 96 MTS tetrazolium-based bioassay (Promega, Madison, WT, USA), where the absorbance of the formazan product is directly proportional to the number of viable cells, was used to indirectly measure cell number after incubation of MEC with various mitogens. It was initially established that the MTS bioassay was linear from 0-2 ×10^4 MEC/well. MEC in basal M199 medium (M199 medium containing 5% PCS, 2 mM glutamine, antibiotic/antimycotic mixture) were seeded in triplicate onto fibronectin (10 μg/ml) coated wells of 96 well plates at 2000 cells/well and allowed to attach the quiesce for 36 hours at 37° C. in 5% CO2/air. Medium was replaced with the standard or complex M199 culture medium (day 0) with or without the following growth factors: 10 ng/ml vascular endothelial growth factor (VEGF121;gift from Dr J Abrahams, Scios Inc, Sunnyvale, Calif., USA), 0.01-20 ng/ml VEGF165 (R & D Systems, Minneapolis, Minn., USA) bFGF (0.01-10 ng/ml), 120 μg/ml EC growth factor (ECGF; Boehringer Mannheim) 50 ng/ml epidermal growth factor (EGF; R & D Systems), depending on the assay conditions being tested. In some experiments different concentrations of HS and FCS and combinations of both were tested and in other experiments various component of the complex medium were omitted. Cells were incubated at 37° C. in 5% CO2/air for 6 or 10 days, with medium changes every 2 days. Twenty μl 3-(4,5-dimethylthiazol-2-yl)-5-(3-carboxymethoxyphenyl)-2-(4sulphophenyl)-2H-tetrazolium (MTS) was added to the cells and incubated 2 hours at 37° C. and absorbance measured at 490 nm using a plate reader (Emax, Molecular Devices, Sunnyvale, Calif., USA). Absorbance was also measured on day 0 and this value subtracted from all results to determine MEC growth over 6 days.

[2] = system: human myometrial microvascular endothelial cells (MEC); experiment: MEC migration assay (monolayer wound assay); type: cell-based; design: key to migration of MEC into denuded area, Early Passage MEC (P4) / migration of MEC into denuded area, Late Passage MEC (P12): +/−: very low; +: low; ++: medium; +++: high coverage of the denuded area; conditions: for migration of MEC in response to growth factor: 48 hour incubation in basal medium, high and low passage MEC; for migration of MEC into denuded area, Early Passage MEC (P4) / migration of MEC into denuded area, Late Passage MEC (P12): semi-quantitative coverage of denuded area after wounding, basal medium
Method: […] The medium was changed to basal medium, the MEC monolayers wounded using a plastic pasteur pipette and photographed using a Zeiss inverted phase contrast microscope. Duplicate wells were incubated with or without VEGF165 (10 ng/ml) or bFGF (5 ng/ml) in the presence and absence of 40 μg/ml rabbit anti human VEGF antibody (Gargett et al., 1999) or 50 μg/ml goat anti-human bFGF antibody (R & D Systems) respectively for 48 hours at 37° C. in 5% CO/air and the same field of view was rephotographed.
A characteristic feature of EC is their ability to migrate in response to certain growth factors (Goodman et al., 1985; Ferrara and DavisSmyth, 1997). The migration of early and late passage myometrial MEC in response to bFGF and VEGF was examined using the monolayer wound assay (Goodman el al., 1985) in the presence and absence of neutralising bFGF and VEGF antibodies.

[3] = over 10 days, 5 ng/ml bFGF, 15% HS/5% FCS (FIG. 4)
[4] = early (low) passage MEC (P1, P2, P3)
[5] = late (high) passage MEC (P10, P13)

Molecule	effect of cAMP promoter on bFGF-stimulated MEC proliferation [1, 3]	stimulation of MEC proliferation by maximal concentrations of growth factors [1]	growth factor-stimulated MEC proliferation with combinations of HS and FCS in the medium [1]	dose dependence of stimulated MEC proliferation [1]	EC50 of growth factor-induced MEC proliferation [1, 4] [ng/mL]	difference in absorbance between maximal and minimal response measured at day 6 ([1]; high passage MEC, n=2)	EC50 of growth factor-induced MEC proliferation [1, 5] [ng/mL]	difference in absorbance between maximal and minimal response measured at day 6 ([1]; low passage MEC, n=3)	migration of MEC in response to growth factor [2]	migration of MEC into denuded area, Early Passage MEC (P4) [2]	migration of MEC into denuded area, Late Passage MEC (P12) [2]	also measured
C[C@]12CCC(=O)C=C1CC[C@@H]1[C@@H]2[C@@H](O)C[C@@]2(C)[C@H]1CC[C@]2(O)C(=O)CO [Hydrocortisone, hydrocortisone, reference compound]												effect on bFGF-induced myometrial MEC proliferation ([1]; in the presence or absence of IBMX or dibutyryl cAMP (results not shown)): no significant effect
CC(C)Cn1c(=O)n(C)c(=O)c2[nH]cnc21 [IBMX, 3-isobutyl-1-methyl xanthine, reference compound]	significantly greater proliferation of myometrial MEC over 10 days in the absence											
CCCC(=O)Nc1ncnc2c1ncn2[C@@H]1O[C@@H]2COP(=O)(O)O[C@H]2[C@H]1OC(=O)CCC [dibutyryl cAMP, N-6, 2 ′-O-dibutyryl adenosine 3′,5′-cyclic monophosphate, reference compound]	significantly greater proliferation of myometrial MEC over 10 days in the absence											effect of cAMP promoter on bFGF-stimulated MEC proliferation ([1]; after 5 days, 5 ng/ml bFGF (FIG. 4)): greater growth was observed in the absence
EGF: epidermal growth factor (R & D Systems) (NSDSECPLSHDGYCLHDGVCMYIEALDKYACNCVVGYIGERCQYRDLKWWELR; Epidermal growth factor; UniProt P01133 971-1023, looked up)		weakly mitogenic										
bFGF: mitogen, growth factor (Gibco BRL)		maximal stimulation of MEC proliferation	even greater levels of MEC proliferation	dose dependent manner	~0.6	0.82	~0.9	0.50 ±0.07	migrated into the denuded area to a comparable extent	+++	++	
vascular endothelial growth factor [VEGF]			even greater levels of MEC proliferation	dose dependent manner	~1.5	0.70	~1.6	0.51 ±0.09	migrated into the denuded area to a comparable extent	+++	+++	
